The values that follow come from ChEMBL document CHEMBL1201862, “PubChem BioAssay data set” (2004).

Some test systems named below: LOX IMVI; HOP-62; SF-539; SW-620; EKVX; M14; NCI-H23; ACHN; IGROV-1; RXF 393; Hs-578T; UO-31; PC-3; Malme-3M; MCF7; SN12C; HT-29; SK-OV-3; CCRF-CEM; MOLT-4.
Experiment in all cases: NCI-60 cell line screen, 48 h

The structures appear in SMILES notation.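 A five-concentration, 48-hour dose response in 96-well plates underlies each endpoint, interpolated linearly between surrounding concentrations. GI50: concentration for 50% inhibition of growth.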 Activity calls are given as the source filed them. No stated cut-off is given here; in the data, active = GI50 up to about 1.1 µM and inactive = higher. Where only a bound is given, the exact number is not on record here.

Take `CCCCCCN(CCCCCC)CCC(=O)c1ccc2cc(Br)c3ccccc3c2c1`: the GI50 was 32 µM (inactive) in the assay on LOX IMVI; 40.4 µM (inactive) with HOP-62; 21.3 µM (inactive) in the assay on SF-539; 43.7 µM (inactive) in the assay on SW-620; > 100 µM (inactive) in the assay on EKVX; 82.6 µM (inactive) in the assay with M14. For the same compound, the GI50 was 81.8 µM (inactive) in the assay on NCI-H23; 54.1 µM (inactive) in the assay on ACHN; 40.3 µM (inactive) in the assay with IGROV-1; 20.7 µM (inactive) with RXF 393; 33.3 µM (inactive) in the assay on Hs-578T; 26.7 µM (inactive) in the assay on UO-31. The GI50 was 31.3 µM (inactive) in the assay on PC-3; 89.1 µM (inactive) in the assay on Malme-3M; 20.2 µM (inactive) with MCF7; 34 µM (inactive) with SN12C; 66.1 µM (inactive) in the assay on HT-29; 39.1 µM (inactive) in the assay on SK-OV-3.

`O=C(/C(=N/Nc1cn[nH]c(=O)c1Cl)c1ccccc1)c1ccccc1`: the GI50 is 18.8 µM (inactive) in the assay with LOX IMVI; 44.8 µM (inactive) with HOP-62; 22.6 µM (inactive) with SF-539; 31.3 µM (inactive) with SW-620; 24 µM (inactive) in the assay with EKVX; 46.8 µM (inactive) with M14. Further, the GI50 with NCI-H23 is 22.4 µM (inactive); with ACHN, 57.9 µM (inactive); in the assay on CCRF-CEM, 32.4 µM (inactive); in the assay with IGROV-1, 18.9 µM (inactive); in the assay with RXF 393, 0.326 µM (active); with UO-31, 22.6 µM (inactive). The GI50 in the assay on PC-3 is 27.5 µM (inactive); with Malme-3M, 52.7 µM (inactive); with MCF7, 45.8 µM (inactive); in the assay on MOLT-4 it was 23.2 µM (inactive); in the assay with SN12C it was 27.4 µM (inactive); in the assay with HT-29 it was 20 µM (inactive). In addition, in the assay on SK-OV-3, the GI50 is 39.5 µM (inactive).

With `CC(C)=NN/C(=N\c1ccc(Cl)cc1)NS(=O)(=O)c1ccc(Oc2cccc(Cl)c2C#N)cc1`, the GI50 in the assay with LOX IMVI, in the assay with HOP-62, in the assay on SW-620, with EKVX, in the assay with M14 and with NCI-H23 was > 100 µM (inactive) in each case. The GI50 in the assay with CCRF-CEM, in the assay on IGROV-1, in the assay with Hs-578T, in the assay with UO-31, in the assay with PC-3 and in the assay on Malme-3M was > 100 µM (inactive) each time. The GI50 in the assay with MCF7, in the assay on MOLT-4, in the assay with SN12C and in the assay on HT-29 was > 100 µM (inactive) throughout.

Regarding `COC(=O)C1(C)CCC(c2ccc(C)cc2)=C(CC(=O)O)C1` (stereo not drawn), the GI50 in the assay with LOX IMVI, in the assay with HOP-62, with SF-539, with SW-620, with EKVX and with M14 was > 100 µM (inactive) each time. In addition, the GI50 in the assay with NCI-H23, with ACHN, in the assay on IGROV-1, in the assay on RXF 393, in the assay with Hs-578T and in the assay with PC-3 was > 100 µM (inactive) each time. The GI50 with Malme-3M, with MCF7, with MOLT-4, in the assay on SN12C, in the assay on HT-29 and with SK-OV-3 was > 100 µM (inactive) in each case.

Turning to `COC(c1ccc(C(C)(C)C)cc1)(c1ccc(C(C)(C)C)cc1)c1ccc(C(C)(C)C)cc1`, the GI50 in the assay on LOX IMVI is > 100 µM (inactive); in the assay with HOP-62, > 100 µM (inactive); with SF-539, > 100 µM (inactive); with SW-620, > 100 µM (inactive); in the assay with EKVX, > 100 µM (inactive); in the assay with M14, 70.5 µM (inactive). The GI50 in the assay on NCI-H23, with ACHN, in the assay with CCRF-CEM, with IGROV-1, in the assay with Hs-578T and in the assay with UO-31 was > 100 µM (inactive) throughout. In addition, the GI50 in the assay on PC-3, with Malme-3M, in the assay with MCF7, in the assay on MOLT-4, with SN12C and with HT-29 was > 100 µM (inactive) each time.

For `O=C(CCc1nnc(S)[nH]1)Nc1ccccc1Cl`, the GI50 is > 100 µM (inactive) with LOX IMVI; > 100 µM (inactive) in the assay on HOP-62; > 100 µM (inactive) in the assay with SF-539; 18.2 µM (inactive) in the assay on SW-620; > 100 µM (inactive) in the assay on EKVX; > 100 µM (inactive) with M14. In addition, the GI50 in the assay with NCI-H23, in the assay with ACHN, in the assay on CCRF-CEM, with IGROV-1, with RXF 393 and in the assay with UO-31 was > 100 µM (inactive) throughout. For the same compound, the GI50 with Malme-3M, in the assay with MOLT-4, with SN12C, with HT-29 and with SK-OV-3 was > 100 µM (inactive) in each case.

On to `CSc1ccc(C=C2N=C(c3ccccc3)N(c3cc(C(=O)c4ccccc4)ccc3N3C(=O)/C(=C/c4ccc(SC)cc4)N=C3c3ccccc3)C2=O)cc1`, for which the GI50 was 32.1 µM (inactive) in the assay on LOX IMVI; 79.8 µM (inactive) with HOP-62; 22.6 µM (inactive) in the assay on SF-539; > 100 µM (inactive) in the assay on SW-620; > 100 µM (inactive) in the assay with EKVX; 76.9 µM (inactive) with M14. For the same compound, the GI50 is 52.4 µM (inactive) in the assay on ACHN; 5.69 µM (inactive) in the assay with CCRF-CEM; 81.3 µM (inactive) in the assay on IGROV-1; 52.7 µM (inactive) in the assay with Hs-578T; 48.4 µM (inactive) in the assay with UO-31; 40 µM (inactive) in the assay with PC-3. In addition, the GI50 in the assay with MCF7 was > 100 µM (inactive); with MOLT-4 it was 23.7 µM (inactive); with SN12C, 76.6 µM (inactive); with HT-29, 81.3 µM (inactive); in the assay on SK-OV-3 it was > 100 µM (inactive).

For `CC(=O)OCC1OC(n2nc(Cc3ccccc3)c(=S)[nH]c2=S)C(OC(C)=O)C(OC(C)=O)C1OC(C)=O` (stereo not drawn), the GI50 with LOX IMVI is 20.6 µM (inactive); in the assay with HOP-62 it was 22 µM (inactive); in the assay with SF-539, 24.9 µM (inactive); with SW-620, 30 µM (inactive); in the assay on M14 it was 19.4 µM (inactive); with NCI-H23, 20.3 µM (inactive). Moreover, the GI50 in the assay with ACHN is > 100 µM (inactive); with IGROV-1 it was 25 µM (inactive); with RXF 393, 22.9 µM (inactive); in the assay on Hs-578T, 20.2 µM (inactive); in the assay with UO-31, 4.9 µM (inactive); in the assay on PC-3, 41.1 µM (inactive). The GI50 with Malme-3M was 31.6 µM (inactive); in the assay on MCF7, 27.7 µM (inactive); with MOLT-4 it was 23.2 µM (inactive); in the assay with SN12C, 21.5 µM (inactive); in the assay with HT-29, 41.8 µM (inactive); in the assay with SK-OV-3 it was 50.7 µM (inactive).

`COc1ccc(-c2nc(N)c(C#N)c3c2CCS(=O)(=O)c2ccc(C)cc2-3)cc1OC`: the GI50 is 48.3 µM (inactive) in the assay on LOX IMVI; 33.2 µM (inactive) with HOP-62; 34.9 µM (inactive) with SW-620; 28.4 µM (inactive) in the assay on M14; 31.5 µM (inactive) with NCI-H23; 48.4 µM (inactive) with ACHN. Also, the GI50 in the assay on IGROV-1 was 31.6 µM (inactive); with Hs-578T, 24.6 µM (inactive); in the assay with UO-31, 30.8 µM (inactive); with PC-3, 11.9 µM (inactive); in the assay on Malme-3M it was 26.5 µM (inactive); in the assay on SN12C, 50.2 µM (inactive). Further, the GI50 in the assay on HT-29 is 30.1 µM (inactive).

In the case of `C/C(=N\NC(=O)CC#N)C(CN1CCCCC1)C(c1ccccc1)c1c(O)c2ccccc2oc1=O` (stereo not drawn), the GI50 in the assay on LOX IMVI is 17.4 µM (inactive); with SF-539 it was 52.6 µM (inactive); in the assay with SW-620 it was 91.4 µM (inactive); in the assay on EKVX it was > 100 µM (inactive); in the assay on M14, 68.5 µM (inactive); in the assay with NCI-H23, 46.2 µM (inactive). For the same compound, the GI50 in the assay on ACHN is 35 µM (inactive); in the assay with CCRF-CEM, 26.2 µM (inactive); in the assay with IGROV-1, 77.6 µM (inactive); with Hs-578T it was 50.6 µM (inactive); in the assay with UO-31 it was 33.9 µM (inactive); with PC-3, 58.3 µM (inactive). Also, the GI50 with Malme-3M is 41 µM (inactive); with MCF7 it was 17.3 µM (inactive); in the assay on MOLT-4, 26.5 µM (inactive); in the assay on HT-29, 46.8 µM (inactive); in the assay on SK-OV-3 it was 64 µM (inactive).

Take `CCOC(=O)c1cn(-c2ccc(Cl)cc2)c(=O)n2c1nc1ccccc12`: the GI50 in the assay with LOX IMVI, with HOP-62, with SF-539, in the assay with SW-620, in the assay with EKVX and in the assay on M14 was > 100 µM (inactive) each time. The GI50 in the assay with NCI-H23, with ACHN, in the assay with CCRF-CEM, in the assay with IGROV-1, with RXF 393 and in the assay on UO-31 was > 100 µM (inactive) throughout. Also, the GI50 is > 100 µM (inactive) with PC-3; > 100 µM (inactive) with MCF7; > 100 µM (inactive) in the assay with MOLT-4; > 100 µM (inactive) in the assay with SN12C; 88.3 µM (inactive) in the assay on HT-29.
